In article PMC5321741, “Arylmethylamino steroids as antiparasitic agents” (Nature Communications, 2017):
Read-outs that look alike come from different tables or passages of the source.

How the values were obtained:
plasma stability = assay type: in vitro ADME; details: for remaining at 3 h: plasma, read-out: Plasma Stability % remaining after 3 h
Description: (§1) Pharmacokinetic data were obtained for compound 1o at the Sanford-Burnham Medical Research Institute according to established procedures. Compound solubility in an aqueous solution was measured using an automated kinetic solubility method. The concentration of the compound in a saturated pH-buffered aqueous solution was determined via UV absorbance (250–498 nm) and compared with the spectra of a precipitation-free reference solution. The plasma stability of the compound was determined at a single concentration using species-specific plasma. The percentage of parent compound remaining after 3 h was determined via LC-MS/MS. The percentage of compound 1o bound to plasma proteins was determined through rapid equilibrium dialysis and quantified via LC-MS/MS. Metabolic stability of the compound was determined at a single concentration using species-specific liver microsomes that contained cytochrome P450s, flavin-monooxygenases, carboxyl-esterases, epoxide hydrolases, and other drug-metabolizing enzymes. The quantification was carried out via LC-MS/MS. Membrane permeability of compound 1o was measured using an in vitro model for the passive transport from the gastrointestinal tract into the blood system. A double-sink parallel artificial membrane permeability assay PAMPA, in a 96-well format was employed.

[1] = PAMPA membrane permeability; assay type: in vitro ADME
Description: as §1

[2] = plasma protein binding (rapid equilibrium dialysis); assay type: in vitro ADME; details: read-out: Plasma Protein Binding % bound (converted)
Description: as §1

[3] = system: P. falciparum gametocytes (pfs16-GFP-Luc, NF54 background); assay: gametocyte luciferase assay; assay type: cell-based, Plasmodium falciparum
Description: Sensitivity of P falciparum gametocytes to lead compound 1o was determined by measuring the activity of luciferase in luciferase-expressing gametocytes after an exposure of 72 h to different concentrations of compound 1o.
The pfs16-GFP-Luc (NF54 background) parasite strain[44] was maintained at 1 to 10% parasitaemia in an RPMI 1640 culture medium supplemented with A+ erythrocytes (2% haematocrit), 10% decomplemented human serum, 9 mM (0.16%) glucose, 0.2 mM hypoxanthine, 2.1 mM L-glutamine, and 20 μg ml^−1 gentamicin. Parasite cultures were incubated at 37 °C in 5% O2, 5% CO2, and 90% N2. […] Following drug exposure, parasites were cultivated for two additional days in normal medium before centrifugation and freezing at −80 °C, and luciferase activity was measured.
Plates frozen at −80 °C were thawed at 37 °C. […] Luciferase activity was measured on a luminescence plate reader (Mithras LB940 luminometer, Berthold Technologies). The mean of the luciferase activity was calculated for each technical triplicate and normalized as follows: (Lucx−LucRBC)/(Lucsolvent−LucRBC) with Lucx and Lucsolvent=mean luciferase activity for parasites incubated with compound x and with solvent (DMSO for 1o and PBS for MB), respectively, and LucRBC=mean luciferase activity of non-infected red blood cells (background). […]

in vitro = assay type: cell-based; details: Human
Description: Furthermore, cytotoxicity tests were carried out on immortalized human hepatocytes, Fa2N-4 cells (XenoTech, cat.no. IFH15), at the Sanford-Burnham Medical Research Institute. Cells were incubated with a range of concentrations (0.01–50 μM) of compound 1o for 24 h. Cell viability was determined with cellular ATP levels by using the Luminescence ATP Detection Assay System (ATPlite 1 step).

[4] = spectrophotometric titration by Fe(III); assay type: physicochemical; details: 0.2 M HEPES pH 7.5 + DMSO (1:1 v/v), 25.0 °C
Description: Supplementary Figure 17. (left) Spectrophotometric titration of the substrates 1o and 2o by Cu(II) and Fe(III) and (right) electronic spectra of the free substrates and of corresponding metal complexes. Solvent: 0.2 M aqueous sodium HEPES buffer pH 7.5 + DMSO (1:1 v/v); T = 25.0 […]
were prepared in CH3CN (5 mM). Haematin and the substrates were mixed together in […]
The absorption spectrophotometric […]
each addition of the substrate. […]
spectrophotometric data with the Specfit program. The uncertainties on the log K values are given as 3σ with σ = standard deviation. Origin 7.0 was used to process the analytical

Structure (SMILES) | Plasma Stability % remaining after 3 h (plasma stability; Human) [%] | Plasma Stability % remaining after 3 h (plasma stability; Mouse) [%] | remaining at 3 h (plasma stability; human) [%] | remaining at 3 h (plasma stability; mouse) [%] | PAMPA Pe ([1]; Donor pH 5.0, Acceptor pH 7.4) [×10⁻⁶ cm/s] | PAMPA Pe ([1]; Donor pH 6.2, Acceptor pH 7.4) [×10⁻⁶ cm/s] | PAMPA Pe ([1]; Donor pH 7.4, Acceptor pH 7.4) [×10⁻⁶ cm/s] | PAMPA permeability in words ([1]; all 3 pH levels, compound well embedded in the filter membrane) | fraction unbound at 1 µM ([2]; Human) | fraction unbound at 10 µM ([2]; Human) | fraction unbound at 1 µM ([2]; Mouse) | fraction unbound at 10 µM ([2]; Mouse) | relative survival of gametocytes ([3]; concentrations >5 nM, all stages, 72 h exposure) | complete killing of gametocytes ([3]; even at concentrations >1 μM) | CC50 at 24 h (in vitro) [µM] | log K2o.Fe [4]
COc1ccc2c(c1)CCC1C2CC[C@@]2(C)C1CC[C@H]2NCc1cc2ccccc2cc1O (stereo partly shown) [1o] | 62 | 58 | 62.5 | 58.9 | 0 | 0 | 0 | very poorly permeable at all 3 pH levels tested | 0.0087 | 0.0094 | 0.0094 | 0.0107 | below 50% | never detected complete killing of gametocytes | > 50 | –
COc1ccc2c(c1)CCC1C2CC[C@@]2(C)C1CC[C@@H]2NCc1cc2ccccc2cc1O (stereo partly shown) [2o] | – | – | – | – | – | – | – | – | – | – | – | – | – | – | – | 4.3
